Key:
[1] = test system: human keratinocytes; test: cells; conditions: Keratinocyte, 264 h, read-out: average inhibitory concentration (IC50)
Description: To determine the action, firstly human keratinocytes from the preputial skin of neonates after the 1st passage are distributed in MCDB153 medium in 96-well microtiter plates (2×10^3 cells/well) and the compound given below is added in concentrations of from 10^-10 to 10^-5 M, blank controls containing only the solubilizer DMSO (1%). The period of incubation is 11 days, and after another 2 days in each case there is a change of medium followed by renewed addition of substance.
To determine the rate of cell reproduction, incubation is carried out for 1 h with 4-methylumbelliferyl heptanoate (MUH) according to the method described by R. Stadler et al., Journal of Investigative Dermatology 93, 532-534, 1989, after which the fluorescence intensity is measured using a Titertek Fluoroskan.
4 experiments were carried out, in each case with 4 wells/concentration.

[2] = test system: human transformed keratinocytes (HaCat); test: cells; conditions: 72 h
Description: In a second cell reproduction test, human transformed keratinocytes (HaCat) are employed which are cultured in DMEM culture medium with an addition of 10% calf serum. Cells which have grown to confluence beforehand are isolated with trypsin and distributed in 6-well plates in a density of 40×10^3.
The test substance is added 24 h after distribution and after incubation for a further 72 h the cell count is determined using a Coulter counter. Controls are incubated without further additions or with the addition of the solubilizer polyethylene glycol 400 (0.05%).
Evaluation was made in each case for 6 wells/concentration.

[3] = read-out: % inhibition of growth

IC50 [1]: 0.088 µM
SMILES: COC(=O)C1=C(C)NC(C)=C(C(=O)OCCCN2CCC(c3ccccc3)(c3ccccc3)CC2)C1c1cccc([N+](=O)[O-])c1 (single isomer, unassigned) [Compound 1, 3-methyl 5-[3-(4,4-diphenyl-1-piperidyl)propyl] (-)-1,4-dihydro-2,6-dimethyl-4-(3-nitrophenyl)pyridine-3,5-dicarboxylate]
inhibition at 1 µM [2, 3]: 60%
inhibition at 10 µM [2, 3]: 96%
IC50 ([2]; read-out: inhibitory concentration (IC50)): 0.52 µM
